Assay [1] has as its system trained group of panelists. In words: Sensory studies in aqueous solution (trained panelists, cooling in the mouth). The note with it: 40 ppm in aqueous solution, 20 mL swilled in the mouth for 60 seconds; for Cooling after 1 hour / Max. cooling: averaged panel score 0-10. The class given is in vivo, human. Here is the method:
The compounds as listed below in Table 2 were dissolved at a concentration of 1 wt-% in propylene glycol. These solutions were then dispensed in appropriate quantities into deionized water containing 0.5 wt-% Poloxamer 407 (which is a hydrophilic non-ionic surfactant, e.g., commercially available from SigmaAldrich) and 0.25 wt-% Cremaphor® RH40 (obtained from BASF) as solubilizer, to obtain the desired final concentration of 40 ppm (parts per million) of the respective compound.
A trained group of panelists evaluated the aqueous solutions containing test compound by swilling 20 mL of the solution in the mouth for 60 seconds, followed by spitting, without rinsing the mouth afterwards for the duration of the evaluation. Panelists evaluated and recorded the cooling performance as well as other sensorial and organoleptic attributes at different timepoints over a period of two hours. Cooling performance was rated on a scale from 0 to 10 with 0 being no effect and 10 being freezing. Scores were averaged for all panelists and the cooling intensity qualified as “N” for “none” (score of 0), “L” for “low” (score above 0, up to 1), “M” for “medium” (score above 1, up to 4), “S” for “strong” (score above 4, up to 8) and “E” for “extreme” (score above 8), which are provided in Table 2.

For assay [2], the target named is T1, hTRPM8 (Homo sapiens, UniProt Q7Z2W7).
T1 construct: expressed in transfected cells
T1 sequence (Q7Z2W7 whole entry): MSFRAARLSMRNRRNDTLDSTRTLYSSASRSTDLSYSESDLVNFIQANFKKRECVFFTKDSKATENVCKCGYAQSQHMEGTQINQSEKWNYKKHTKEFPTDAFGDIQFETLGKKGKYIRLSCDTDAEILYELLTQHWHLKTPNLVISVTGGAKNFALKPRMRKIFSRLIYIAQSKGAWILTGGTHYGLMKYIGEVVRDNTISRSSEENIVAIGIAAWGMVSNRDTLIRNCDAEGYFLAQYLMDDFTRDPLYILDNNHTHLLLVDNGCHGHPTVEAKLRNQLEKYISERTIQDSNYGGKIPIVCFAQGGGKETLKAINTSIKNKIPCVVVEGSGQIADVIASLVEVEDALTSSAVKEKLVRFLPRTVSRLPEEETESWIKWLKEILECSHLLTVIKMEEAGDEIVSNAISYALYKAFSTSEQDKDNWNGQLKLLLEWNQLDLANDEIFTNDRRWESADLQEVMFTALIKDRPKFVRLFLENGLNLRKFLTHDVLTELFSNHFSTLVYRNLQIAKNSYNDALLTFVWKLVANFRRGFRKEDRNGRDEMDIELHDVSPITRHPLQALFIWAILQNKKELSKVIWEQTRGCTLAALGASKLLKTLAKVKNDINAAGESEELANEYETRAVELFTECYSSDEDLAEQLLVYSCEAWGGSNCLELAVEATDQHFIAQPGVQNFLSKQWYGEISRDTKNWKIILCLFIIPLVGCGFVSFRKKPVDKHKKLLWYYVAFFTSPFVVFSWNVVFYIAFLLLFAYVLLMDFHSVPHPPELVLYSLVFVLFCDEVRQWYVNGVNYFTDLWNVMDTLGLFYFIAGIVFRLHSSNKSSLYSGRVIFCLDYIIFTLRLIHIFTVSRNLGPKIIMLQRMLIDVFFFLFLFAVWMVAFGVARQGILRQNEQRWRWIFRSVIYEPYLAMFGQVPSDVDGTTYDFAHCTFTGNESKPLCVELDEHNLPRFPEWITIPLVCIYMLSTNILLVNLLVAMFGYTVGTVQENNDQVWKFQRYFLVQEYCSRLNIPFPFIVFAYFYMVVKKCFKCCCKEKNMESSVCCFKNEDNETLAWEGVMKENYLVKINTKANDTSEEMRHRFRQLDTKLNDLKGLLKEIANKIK
The assay is described as follows: Assay on TRPM8 modulators: calcium imaging (Fluo-4, Flexstation) in HEK293 cell line stably expressing hTRPM8. The class given is cell-based. The note with it: TRPM8 agonist activity, calcium influx, HEK293 stably expressing hTRPM8, sigmoidal dose-response fit. On the procedure: A HEK293 cell line stably expressing hTRPM8 was generated according to Klein et al., (Chem. Senses 36: 649-658, 2011) and receptor activation was monitored by calcium imaging in a Flexstation. For Ca-imaging assays of TRPM8 channel activation, cells were seeded on day 0 at a density of 12000 cells per well in Dulbecco's modified Eagle medium (DMEM) containing 9% foetal bovine serum in black, clear bottom 96-well plates that had been coated with 0.001% polyethyleneimine (molecular weight=60 000, Acros Organics). On day 2, agonists were evaluated via calcium imaging using Fluo-4. Briefly, growth medium was discarded, and the cells were incubated in the dark for 1 h at 37° C. in 50 μL loading buffer consisting of 2.7 μM Fluo-4 AM (Invitrogen) and […] probenecid (Sigma-Aldrich) in DMEM (without serum). After incubation, the plates were washed five times with 100 μL of assay buffer (in mM: 130 NaCl, 5 KCl, 10 HEPES, 2 CaCl2, and 10 glucose, pH7.4.) and further incubated in the dark at room temperature for 30 min. The cells were then washed five times with 100 μL assay buffer and then calcium influx to serial dilutions of inventive compounds were measured in a Flexstation 3 (Molecular Devices). Receptor activation was initiated following addition of 20 μl of a 10-fold concentrated ligand stock solution, which is also prepared in assay buffer. Fluorescence was continuously monitored for 15 seconds prior to ligand addition and for 105 seconds after ligand addition, for a total of 120 seconds. Maximal receptor activation in relation to solvent control and relative to 31.6 μM menthol is determined. Data from serial dilutions were processed with a KNIME workflow to fit a sigmoidal dose-response curve and to extrapolate EC50 values.

Structures are written as SMILES. Counter-ions that a name gives are not always drawn.

For orientation: EC50 means the concentration giving half of the maximal effect.

Regarding `Cc1ccc(OCCN2CCN(C)CC2)c(Cc2ccccc2)c1` [compound 77, 1-(2-(2-benzyl-4-methylphenoxy)ethyl)-4-methylpiperazine], in assay [1], the “Time of max. cooling” value was 10 min; the “Cooling after 1 hour” value was “M (“M” for “medium” (score above 1, up to 4))”; the Max. cooling entry is given as “M (“M” for “medium” (score above 1, up to 4))”. Moreover, the EC50 in assay [2] fell in the range of 300 to 1000 nM.

For the compound `Cc1ccc(OCCN2CCOCC2)c(Cc2ccccc2)c1.Cl` [compound 159, 4-(2-(2-benzyl-4-methylphenoxy)ethyl)morpholine hydrochloride], in assay [1], the “Time of max. cooling” value was 5 min; the “Cooling after 1 hour” value was “L (“L” for “low” (score above 0, up to 1))”; the Max. cooling result was “M (“M” for “medium” (score above 1, up to 4))”. Also, in assay [2], the EC50 lay within 1000 to 35000 nM.

In the case of `Cc1ccc(CCCN2CCN(C)CC2)c(Cc2ccccc2)c1` [compound 100, 1-(3-(2-benzyl-4-methylphenyl)propyl)-4-methylpiperazine], in assay [1], the “Time of max. cooling” value was 10 min; the “Cooling after 1 hour” value is recorded as “M (“M” for “medium” (score above 1, up to 4))”; the Max. cooling entry is reported as “M (“M” for “medium” (score above 1, up to 4))”. The EC50 in assay [2] lay within 300 to 1000 nM.

As to `Cc1ccc(OC(C)CN2CCN(C)CC2)c(Cc2ccccc2)c1` (stereo not shown) [compound 90, 1-(2-(2-benzyl-4-methylphenoxy)propyl)-4-methylpiperazine], in assay [1], the “Time of max. cooling” value was determined as 10 min; the “Cooling after 1 hour” value is listed as “M (“M” for “medium” (score above 1, up to 4))”; the Max. cooling result is “M (“M” for “medium” (score above 1, up to 4))”. In addition, the EC50 in assay [2] fell in the range of 300 to 1000 nM.

For `Cc1ccc(OCCN2CCN(C)CC2)c(Cc2ccccc2C)c1` [compound 103, 1-methyl-4-(2-(4-methyl-2-(2-methylbenzyl)phenoxy)ethyl)piperazine], in assay [2], the half-maximal effective concentration (EC50) fell in the range of 300 to 1000 nM.

Take `Cc1cc(C)c(OCCN2CCOCC2)c(Cc2c(Cl)cccc2C#N)c1` [compound 142, 3-chloro-2-(3,5-dimethyl-2-(2-morpholinoethoxy)benzyl)benzonitrile]: in assay [2], the EC50 lay within 300 to 1000 nM.

As for `Cc1cc(C)c(OCC(C)N2CCOCC2)c(Cc2c(F)cccc2F)c1` (stereo not shown) [compound 143, 4-(1-(2-(2,6-difluorobenzyl)-4,6-dimethylphenoxy)propan-2-yl)morpholine], the EC50 in assay [2] was in the range of 50 to 300 nM.

On to `CCN1CCN(CCOc2ccc(C)cc2Cc2ccccc2)CC1` [compound 76, 1-(2-(2-benzyl-4-methylphenoxy)ethyl)-4-ethylpiperazine hydrochloride], for which the EC50 in assay [2] was in the range of 1000 to 35000 nM.

On to `Cc1cccc(Cc2ccccc2)c1OCCN1CCN(C)CC1` [compound 92, 1-(2-(2-benzyl-6-methylphenoxy)ethyl)-4-methylpiperazine], for which the half-maximal effective concentration (EC50) in assay [2] was 1000 to 35000 nM.

Take `Cc1ccc(N(C)CCN2CCOCC2)c(Cc2c(F)cccc2F)c1` [compound 112, 2-(2,6-difluorobenzyl)-N,4-dimethyl-N-(2-morpholinoethyl)aniline]: in assay [2], the concentration giving a half-maximal response (EC50) is less than 50 nM.

With `Cc1cc(C)c(OC(C)CO)c(Cc2ccccc2C#N)c1` (stereo not shown) [compound 106, 2-(2-((1-hydroxypropan-2-yl)oxy)-3,5-dimethylbenzyl)benzonitrile], the EC50 in assay [2] lay within 300 to 1000 nM.

As to `Cc1cc(C)c(OCCN2CCOCC2)c(Cc2cc(F)c(F)cc2F)c1` [compound 156, 4-(2-(2,4-dimethyl-6-(2,4,5-trifluorobenzyl)phenoxy)ethyl)morpholine], in assay [2], the EC50 lay in the range of 1000 to 35000 nM.

As to `CN1CCN(CCOc2ccccc2Cc2ccccc2)CC1` [compound 93, 1-(2-(2-benzylphenoxy)ethyl)-4-methylpiperazine hydrochloride], in assay [2], the EC50 lay in the range of 1000 to 35000 nM.

For the compound `Cc1cccc(OCCN2CCN(C)CC2)c1Cc1ccccc1` [compound 68, 1-(2-(2-benzyl-3-methylphenoxy)ethyl)-4-methylpiperazine], the EC50 in assay [2] lay in the range of 1000 to 35000 nM.

Regarding `Cc1ccc(OCCC2CCN(C)CC2)c(Cc2ccccc2C#N)c1` [compound 128, 2-(5-methyl-2-(2-(1-methylpiperidin-4-yl)ethoxy)benzyl)benzonitrile], the EC50 in assay [2] is 1000 to 35000 nM.

Regarding `Cc1ccc(OCCN2CC(C)N(C)C(C)C2)c(Cc2ccccc2)c1` (stereo not shown) [compound 158, 4-(2-(2-benzyl-4-methylphenoxy)ethyl)-1,2,6-trimethylpiperazine], in assay [1], the “Time of max. cooling” value came out at 30 min; the “Cooling after 1 hour” value is listed as “M (“M” for “medium” (score above 1, up to 4))”; the Max. cooling entry is given as “M (“M” for “medium” (score above 1, up to 4))”. Moreover, in assay [2], the EC50 was in the range of 300 to 1000 nM.

Consider `Cc1cc(C)c(OCCC2CCOCC2)c(Cc2ccccc2C#N)c1` [compound 119, 2-(3,5-dimethyl-2-(2-(tetrahydro-2H-pyran-4-yl)ethoxy)benzyl)benzonitrile], for which, in assay [1], the “Time of max. cooling” value was 10 min; the “Cooling after 1 hour” value is on record as “L (“L” for “low” (score above 0, up to 1))”; the Max. cooling result was “M (“M” for “medium” (score above 1, up to 4))”. Besides, the EC50 in assay [2] lay in the range of 50 to 300 nM.

As for `Cc1ccc(OCCN2CCOCC2)c(/C=C2\CCCCC2=O)c1` [compound 47, (E)-2-(5-methyl-2-(2-morpholinoethoxy)benzylidene)cyclohexan-1-one], the EC50 in assay [2] is 50 to 300 nM.

Regarding `Cc1ccc(OCCN2CCN(C)CC2)c(Cc2cccs2)c1` [compound 105, 1-methyl-4-(2-(4-methyl-2-(thiophen-2-ylmethyl)phenoxy)ethyl)piperazine hydrochloride], the 50% effective concentration (EC50) in assay [2] fell in the range of 300 to 1000 nM.

As for `Cc1ccc(OCCN2CCN(C)CC2)c(Cc2ccc(Cl)cc2)c1` [compound 60, 1-(2-(2-(4-chlorobenzyl)-4-methylphenoxy)ethyl)-4-methylpiperazine hydrochloride], the EC50 in assay [2] lay within 1000 to 35000 nM.

`Cc1ccc(N(C)CCN2CCOCC2)c(Cc2ccccc2)c1` [compound 138, 2-benzyl-N,4-dimethyl-N-(2-morpholinoethyl)aniline]: in assay [2], the EC50 was 50 to 300 nM.

For the compound `CCOC(=O)c1ccc(Cc2cc(C)cc(C)c2OCCN2CCN(C)CC2)cc1` [compound 164, ethyl 4-(3,5-dimethyl-2-(2-(4-methylpiperazin-1-yl)ethoxy)benzyl)benzoate dihydrochloride], the EC50 in assay [2] fell in the range of 1000 to 35000 nM.

Source of the values: patent publication US20230098332A1, “HETEROCYCLIC DERIVATIVES AS TRMP8 ANTAGONISTS” (Givaudan SA, priority 2020, published 2023).
